≈ marks a conversion by molar mass, not a printed value.
Assays:
HepG2 = assay: Cytotoxicity against human HepG2 cells after 72 hrs by celltiter-glo assay; format: cell-based; conditions: HepG2, 72 h
[1] = Solubility of the compound; format: physicochemical
HEK293 = assay: Cytotoxicity against HEK293 cells after 72 hrs by celltiter-glo assay; format: cell-based; conditions: Homo sapiens, HEK293, 72 h
BJ = assay: Cytotoxicity against human BJ cells after 72 hrs by celltiter-glo assay; format: cell-based
Plasmodium falciparum [2] = assay: Antimalarial activity against chloroquine-sensitive Plasmodium falciparum 3D7 infected in O-positive erythrocytes assessed as parasite growth inhibition after 72 hrs by DNA staining-based assay; format: functional, organism-based; conditions: 3D7, 72 h
Plasmodium falciparum [3] = assay: Antimalarial activity against chloroquine and pyrimethamine-resistant Plasmodium falciparum K1 infected in O-positive erythrocytes assessed as parasite growth inhibition after 72 hrs by DNA staining-based assay; format: functional, organism-based; conditions: K1, 72 h
Raji = assay: Cytotoxicity against human Raji cells after 72 hrs by celltiter-glo assay; format: cell-based
[4] = Permeability of the compound by PAMPA; format: ADME; conditions: read-out: permeability
[5] = Half life in mouse liver microsomes; format: ADME, Microsome
[6] = Half life in mouse plasma; format: ADME, cell-free
[7] = Plasma protein binding in human; format: ADME, cell-free; conditions: read-out: PPB (converted)
[8] = Half life in human plasma; format: ADME, cell-free
[9] = Half life in human liver microsomes; format: ADME, Microsome
[10] = Efflux ratio of permeability in human Caco2 cells; format: ADME, cell-based; conditions: Caco-2
[11] = Plasma protein binding in mouse; format: ADME, cell-free; conditions: read-out: PPB (converted)
[12] = Solubility of the compound at pH 3 to 7; format: physicochemical; conditions: buffer

| SMILES | EC50 (HepG2) [µM] | solubility [1] [µg/mL] | EC50 (HEK293) [µM] | EC50 (BJ) [µM] | EC50 (Plasmodium falciparum [2]) [µM] | EC50 (Plasmodium falciparum [3]) [µM] | EC50 (Raji) [µM] | Papp [4] [×10⁻⁶ cm/s] | half-life [5] [min] | half-life [6] [min] | fraction unbound [7] | half-life [8] [min] | half-life [9] [min] | efflux ratio [10] | fraction unbound [11] | solubility [12] [µg/mL] |
| --- | --- | --- | --- | --- | --- | --- | --- | --- | --- | --- | --- | --- | --- | --- | --- | --- |
| CC1=C2CC(C)(C)/C(c3ccc(C(F)(F)F)cc3)=C/C(=O)/C(C)=C\C3=C[C@H](C)C[C@]3(O2)C1=O | 26 | 17 (≈ 37.2 µM) | 26 | 26 | 6.08 | 5.88 | 26 | 106 |  |  |  |  |  |  |  |  |
| CC1=C2CC(C)(C)/C=C/C(=O)/C(C)=C\C3=C[C@H](C)C[C@]3(O2)C1=O [JATROPHONE] | 6.09 |  | 6.09 | 1.93 | 15 | 5.41 | 26 | 525 | 5.4 | 12.6 | 0.26 | 7.8 | 6 | 1.5 | 0.26 | 20 (≈ 64 µM) |
| C[C@@H]1CC[C@H]2CC3=C(CO)CC[C@@]31C2(C)C | 26 |  | 26 | 26 | 15 | 15 | 26 |  |  |  |  |  |  |  |  |  |
| C/C1=C/C2=C[C@H](C)C[C@@]23O[C@]2(CC(C)(C)C[C@@H]2[C@@H]1OC(=S)Sc1ccccc1)[C@@H](C)C3=O | 26 |  | 17.8 | 26 | 8.88 | 5.69 | 26 |  |  |  |  |  |  |  |  |  |
| CC1=C2CC(C)(C)/C=C/C(=O)/C(C)=C\C3=C[C@H](C)C[C@]3(O2)[C@@]1(O)C(F)(F)F | 26 |  | 26 | 26 | 15 | 15 | 26 |  |  |  |  |  |  |  |  |  |
| C/C1=C/C2=C[C@H](C)C[C@@]23O[C@]2(CC(C)(C)[C@@H](O)[C@@H]2C1=O)[C@@H](C)C3=O | 26 |  | 26 | 10.4 | 15 | 15 | 26 |  |  |  |  |  |  |  |  |  |
| CCOC(=O)CNC(=O)[C@H](CS[C@H]1[C@@H]2C(=O)/C(C)=C\C3=C[C@H](C)C[C@@]34O[C@]2(CC1(C)C)[C@@H](C)C4=O)NC(=O)CC[C@H](N)C(=O)O | 26 |  | 26 | 12.5 | 15 | 15 | 6.09 |  |  |  |  |  |  |  |  |  |
| C/C1=C/C2=C[C@H](C)CC2(Br)C(=O)[C@@]2(C)O[C@@H]([C@@H](Br)C1=O)C(C)(C)CC2=O (some centres not stated) | 26 |  | 26 | 26 | 15 | 15 | 26 |  |  |  |  |  |  |  |  |  |
| C/C1=C/[C@]23O[C@H]2[C@H](C)C=C3C(=O)[C@@](C)(O)C(=O)CC(C)(C)/C=C/C1=O | 26 |  | 26 | 26 | 15 | 15 | 26 |  |  |  |  |  |  |  |  |  |
| CC(=O)O[C@@H]1/C=C/C(C)(C)CC2=C(C)C(=O)[C@]3(C[C@@H](C)C=C3/C=C\1C)O2 | 26 |  | 26 | 26 | 1.63 | 15 | 26 |  |  |  |  |  |  |  |  |  |
| CC1=C2CC(C)(C)/C=C/[C@H](OC(=S)Sc3ccccc3)/C(C)=C\C3=C[C@H](C)C[C@]3(O2)C1=O | 26 |  | 26 | 26 | 15 | 15 | 26 |  |  |  |  |  |  |  |  |  |

Source: ChEMBL document CHEMBL2401682, “Evaluation of Jatropha isabelli natural products and their synthetic analogs as potential antimalarial therapeutic agents” (Eur J Med Chem, 2013)
